Results published in ChEMBL document CHEMBL1155106, “Progesterone receptor antagonists with a 3-phenylquinazoline-2,4-dione/2-phenylisoquinoline-1,3-dione skeleton” (Bioorg Med Chem, 2008).
Activity calls are given as the source filed them. The rule behind the calls is not given here.

Key:
[1] = molecular target: T1, Progesterone receptor (Homo sapiens) (UniProt P06401); experiment: Antagonist activity at progesterone receptor in human T47D cells assessed as inhibition of progesterone-induced alkaline phosphatase activity at 100 uM; format: functional, cell-based
T1 sequence (whole entry): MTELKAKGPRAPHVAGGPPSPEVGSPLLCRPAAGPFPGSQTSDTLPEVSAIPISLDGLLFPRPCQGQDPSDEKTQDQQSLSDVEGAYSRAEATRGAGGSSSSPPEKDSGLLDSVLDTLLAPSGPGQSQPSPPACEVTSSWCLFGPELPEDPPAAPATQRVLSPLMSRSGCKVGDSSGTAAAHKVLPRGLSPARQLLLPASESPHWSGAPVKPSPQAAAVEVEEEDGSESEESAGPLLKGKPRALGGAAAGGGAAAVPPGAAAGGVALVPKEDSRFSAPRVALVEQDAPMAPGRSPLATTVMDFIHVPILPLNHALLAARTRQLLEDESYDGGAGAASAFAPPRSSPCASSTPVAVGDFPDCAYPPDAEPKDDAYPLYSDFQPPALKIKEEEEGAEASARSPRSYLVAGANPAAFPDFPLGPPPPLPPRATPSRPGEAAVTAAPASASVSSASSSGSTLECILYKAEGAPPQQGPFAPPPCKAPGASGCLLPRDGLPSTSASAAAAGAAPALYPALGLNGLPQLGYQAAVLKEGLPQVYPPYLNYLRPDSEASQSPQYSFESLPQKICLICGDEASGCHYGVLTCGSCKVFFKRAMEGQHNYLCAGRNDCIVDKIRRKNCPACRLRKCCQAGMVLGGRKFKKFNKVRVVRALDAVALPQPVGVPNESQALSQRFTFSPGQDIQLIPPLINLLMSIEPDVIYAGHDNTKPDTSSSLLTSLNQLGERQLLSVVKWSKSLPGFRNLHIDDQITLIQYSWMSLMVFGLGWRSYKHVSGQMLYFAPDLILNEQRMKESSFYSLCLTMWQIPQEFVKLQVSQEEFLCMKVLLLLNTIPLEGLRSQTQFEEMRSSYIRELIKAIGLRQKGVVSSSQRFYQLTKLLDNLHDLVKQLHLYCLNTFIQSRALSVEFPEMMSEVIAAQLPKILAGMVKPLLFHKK

Progesterone receptor [2] = molecular target: T2, Progesterone receptor (Homo sapiens, UniProt P06401); experiment: Antagonist activity at human progesterone receptor expressed in CHO cells assessed as […] luciferase activity by reporter gene assay; format: functional, cell-based
T2 sequence (P06401 whole entry): T1 sequence (whole entry)

Progesterone receptor [3] = molecular target: T2, Progesterone receptor; experiment: Antagonist activity at progesterone receptor in human T47D cells assessed as inhibition of progesterone-induced alkaline phosphatase activity; format: functional, cell-based
[4] = molecular target: T3, Estrogen receptor (Homo sapiens) (UniProt P03372); experiment: Displacement of [3H]estradiol from estrogen receptor expressed in human T47D cells; format: cell-based
T3 sequence (whole entry): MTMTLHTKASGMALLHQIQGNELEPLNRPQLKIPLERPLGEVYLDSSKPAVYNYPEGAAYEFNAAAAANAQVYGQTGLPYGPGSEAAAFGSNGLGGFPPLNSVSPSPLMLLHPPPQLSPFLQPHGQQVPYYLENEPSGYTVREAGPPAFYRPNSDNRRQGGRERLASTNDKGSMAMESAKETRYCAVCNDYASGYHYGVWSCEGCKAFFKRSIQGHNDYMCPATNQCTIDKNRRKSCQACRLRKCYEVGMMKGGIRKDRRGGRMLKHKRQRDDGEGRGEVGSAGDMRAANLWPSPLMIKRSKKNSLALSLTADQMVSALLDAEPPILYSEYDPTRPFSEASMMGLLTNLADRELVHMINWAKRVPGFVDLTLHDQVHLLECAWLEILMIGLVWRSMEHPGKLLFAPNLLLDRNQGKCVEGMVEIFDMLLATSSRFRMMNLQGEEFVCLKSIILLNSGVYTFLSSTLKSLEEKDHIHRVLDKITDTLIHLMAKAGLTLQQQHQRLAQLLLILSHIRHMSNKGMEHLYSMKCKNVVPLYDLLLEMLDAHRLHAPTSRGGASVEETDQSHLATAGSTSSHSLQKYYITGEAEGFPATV

[5] = molecular target: T4, Androgen receptor (Homo sapiens) (UniProt P10275); experiment: Displacement of [3H]testosterone from androgen receptor expressed in human T47D cells; format: cell-based
T4 sequence (whole entry): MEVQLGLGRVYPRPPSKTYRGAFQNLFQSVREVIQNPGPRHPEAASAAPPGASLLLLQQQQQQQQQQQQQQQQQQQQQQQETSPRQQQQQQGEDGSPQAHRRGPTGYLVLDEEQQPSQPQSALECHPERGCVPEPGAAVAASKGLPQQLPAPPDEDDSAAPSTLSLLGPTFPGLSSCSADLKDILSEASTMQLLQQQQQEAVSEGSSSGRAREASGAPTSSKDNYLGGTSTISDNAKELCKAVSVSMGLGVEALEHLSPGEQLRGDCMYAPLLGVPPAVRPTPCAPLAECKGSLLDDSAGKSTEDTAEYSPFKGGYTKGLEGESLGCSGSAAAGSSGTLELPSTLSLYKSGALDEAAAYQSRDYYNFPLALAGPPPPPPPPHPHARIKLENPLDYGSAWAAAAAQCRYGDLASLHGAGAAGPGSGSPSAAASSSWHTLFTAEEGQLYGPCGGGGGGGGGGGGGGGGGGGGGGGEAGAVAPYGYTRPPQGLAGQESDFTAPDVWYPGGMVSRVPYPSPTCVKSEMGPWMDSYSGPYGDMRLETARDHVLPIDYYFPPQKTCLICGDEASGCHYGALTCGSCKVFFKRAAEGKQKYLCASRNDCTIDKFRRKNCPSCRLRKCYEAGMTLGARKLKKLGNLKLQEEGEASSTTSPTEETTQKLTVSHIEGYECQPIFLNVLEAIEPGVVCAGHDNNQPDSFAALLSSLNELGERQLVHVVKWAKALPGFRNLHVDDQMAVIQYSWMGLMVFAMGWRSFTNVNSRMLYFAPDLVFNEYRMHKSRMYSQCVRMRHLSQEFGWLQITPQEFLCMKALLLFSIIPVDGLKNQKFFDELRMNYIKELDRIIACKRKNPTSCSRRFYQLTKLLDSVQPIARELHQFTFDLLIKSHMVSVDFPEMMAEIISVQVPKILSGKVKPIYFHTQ

[6] = molecular target: T1, Progesterone receptor (Homo sapiens); experiment: Agonist activity at human progesterone receptor expressed in CHO cells assessed as […] luciferase activity by reporter gene assay; format: functional, cell-based
[7] = molecular target: T1, Progesterone receptor (Homo sapiens); experiment: Agonist activity at progesterone receptor in human T47D cells assessed as induction of alkaline phosphatase activity
[8] = molecular target: T1, Progesterone receptor (Homo sapiens); experiment: Antagonist activity at human progesterone receptor expressed in CHO cells assessed as inhibition of progesterone-induced luciferase activity by reporter gene assay at 100 uM; format: functional, cell-based

SMILES	IC50 (Progesterone receptor [2])	IC50 (Progesterone receptor [3])	further results
O=C1CC(O)C(N2C(=O)c3ccc(O)cc3C2=O)C(=O)N1 (stereo not drawn)	–	–	inhibition [1]: 29.4%
O=C1CCC(N2C(=O)c3ccccc3C2=O)C(=O)N1 (stereo not drawn)	–	–	Activity [1]: inactive
CCn1c(=O)n(-c2ccccc2)c(=O)c2ccccc21	34 µM	30 µM	Activity [6]: inactive; Activity [7]: inactive
Cn1c(=O)n(-c2ccccc2)c(=O)c2ccccc21	–	84 µM	Activity [6]: inactive; Activity [7]: inactive
O=C1c2ccccc2C2(CCCCC2)C(=O)N1c1ccc(Cl)cc1	1.5 µM	1.1 µM	–
O=C1CC(O)C(N2C(=O)c3ccccc3C2=O)C(=O)N1 (stereo not drawn)	–	–	inhibition [1]: 30.6%
N#Cc1ccc(N2C(=O)c3ccccc3C3(CCCCC3)C2=O)cc1	0.45 µM	0.88 µM	–
CCCC1(CCC)C(=O)N(c2ccc(C#N)cc2)C(=O)c2ccccc21	0.14 µM	0.12 µM	–
O=C1CCC(N2C(=O)c3ccc(O)cc3C2=O)C(=O)N1O (stereo not drawn)	–	–	inhibition [1]: 53.7%
O=C1CCC(N2C(=O)c3cccc(O)c3C2=O)C(=O)N1O (stereo not drawn)	–	–	inhibition [1]: 30.7%
O=c1[nH]c2ccccc2c(=O)n1-c1ccccc1	–	–	Activity [6]: inactive; Activity [7]: inactive; inhibition [1]: 34%
O=C1CCC(N2C(=O)c3ccccc3C2=O)C(=O)N1O (stereo not drawn)	–	–	inhibition [1]: 42.5%
O=c1c2ccccc2n(Cc2ccccc2)c(=O)n1-c1ccccc1	15 µM	11 µM	Activity [6]: inactive; Activity [7]: inactive
C=CCC1(CC=C)C(=O)N(c2ccc(C#N)cc2)C(=O)c2ccccc21	0.15 µM	0.11 µM	–
C=CCC1(CC=C)C(=O)N(c2ccc(Cl)cc2)C(=O)c2ccccc21	0.85 µM	0.4 µM	–
O=C1Cc2ccccc2C(=O)N1c1ccccc1	–	–	inhibition [1]: 25%; inhibition [8]: 38%
CCCn1c(=O)n(-c2ccccc2)c(=O)c2ccccc21	18 µM	23 µM	Activity [6]: inactive; Activity [7]: inactive
N#Cc1ccc(N2C(=O)c3ccccc3C3(CCCC3)C2=O)cc1	0.69 µM	1.2 µM	–

More lines, main results first:

IC50 (Progesterone receptor [2])	IC50 (Progesterone receptor [3])	SMILES	further results
5.8 µM	3.4 µM	CC1(C)C(=O)N(c2cccc(Cl)c2)C(=O)c2ccccc21	–
0.078 µM	0.074 µM	CCC1(CC)C(=O)N(c2ccc(C#N)cc2)C(=O)c2ccccc21	Activity [4]: inactive; Activity [5]: inactive
17 µM	11 µM	COc1ccc(N2C(=O)c3ccccc3C(C)(C)C2=O)cc1	–
26 µM	20 µM	CC1(C)C(=O)N(c2ccccc2)C(=O)c2ccccc21	–
4.9 µM	4.1 µM	CC1(C)C(=O)N(c2ccccc2Cl)C(=O)c2ccccc21	–
0.28 µM	0.25 µM	CCC1(CC)C(=O)N(c2ccc(Cl)cc2)C(=O)c2ccccc21	–
1.8 µM	1.6 µM	CC1(C)C(=O)N(c2ccc(C#N)cc2)C(=O)c2ccccc21	–
8.9 µM	6.8 µM	CC1(C)C(=O)N(c2ccc(F)cc2)C(=O)c2ccccc21	–
1 µM	1.1 µM	CCCC1(CCC)C(=O)N(c2ccc(Cl)cc2)C(=O)c2ccccc21	–
11 µM	10 µM	CC1(C)C(=O)N(c2cccc(F)c2)C(=O)c2ccccc21	–
10 µM	13 µM	CC1(C)C(=O)N(c2ccccc2F)C(=O)c2ccccc21	–
3.3 µM	1.3 µM	CC1(C)C(=O)N(c2ccc(Cl)cc2)C(=O)c2ccccc21	–
8.9 µM	8.1 µM	Cc1ccc(N2C(=O)c3ccccc3C(C)(C)C2=O)cc1	–
2.1 µM	1.3 µM	O=C1c2ccccc2C2(CCCC2)C(=O)N1c1ccc(Cl)cc1	–
